Assay: in vivo
Conditions: male, SD, rat, iv, 1 mg/kg
Procedure: The preliminary pharmacokinetic study was conducted in male SD rats. Two groups with three mice each were set by random. […] The liquid chromatography tandem mass spectrometry (LC-MS/MS) method was pre-built. The system consisted of LC-20AD High Performance Liquid Chromatography (Shimazu, Japan) with Venusil C18 Plus column (2.1*50 mm, 5.0 μm, Agela, USA) and API 4000 mass spectrometry (AB, USA). […] In the LC method, mobile phase A was distilled water and mobile phase B was acetonitrile. The rinse port wash solution was methanol. The flow rate was 0.700 ml/min and the initial back pressure was 8.9 Mpa. […] The subsequent calculation was under a non-compartmental model statistical moment method with WinNonlin 7.0 software (USA).
Two modes of administration were applied. One was the intragastric injection (i.g., or “PO” for “per os”) at a dosage (D) of 3.0 mg/kg, while the other was the intravenous injection (i.v., or “IV”) at a dosage of 1.0 mg/kg.

AUC(0-inf): 184 ± 74.4 ng·h/mL
AUC(0-t): 159 ± 65 ng·h/mL
Cmax: 284 ± 270 ng/mL
Tmax: 5 min
half-life: 32.3 ± 13.7 min
Structure (SMILES): CCCCS(=O)(=O)Oc1ccc(/C=C/C(=O)Nc2cccc(Br)c2)cc1 [Spartinin C10, (E)-4–(3-((3-bromophenyl)amino)-3-oxoprop-1-en-1-yl)phenylbutane-1-sulphonate]
